Experimental data reported in patent US4298739A, “Novel carbostyril derivatives” (priority 1977, dated 1981).

System: rabbit platelet
Experiment: Collagen-induced aggregation in rabbit platelets (AG-II Aggregometer)
Assay type: cell-based
Design: inhibition: dose or concentration left out as unconfirmed
Settings: Oryctolagus cuniculus, Platelet, read-out: Inhibition effect on collagen induced aggregation in rabbit platelet
Outline: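 Rabbit citrated PRP, diluted with PPP to 300,000/mm^3 platelets for ADP or 450,000/mm^3 for collagen, was preincubated with compound 1 min at 37° C. before inducer was added. ADP at 7.5×10^-5 M or collagen supernatant in Auren Beronal buffer pH 7.35; transmittance change recorded, percent inhibition derived.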

Compound | inhibition at 100 µM (stock) (10^-4 mole) [%] | inhibition at 10 µM (stock) (10^-5 mole) [%] | inhibition at 1 µM (stock) (10^-6 mole) [%] | inhibition [%]
CC(=O)OC1CCC(N(C)C(=O)CCCOc2ccc3[nH]c(=O)ccc3c2)CC1 (stereo not shown) [compound 3, 6-{3-[N-Methyl-N-(4-acetyloxycyclohexyl)aminocarbonyl]propoxy}carbostyril] | 90.8 | 84.8 | 61.9 | –
CN(C(=O)CCCOc1ccc2[nH]c(=O)ccc2c1)C1CCCCC1 [compound 16, 6-[3-(N-Methyl-N-cyclohexylaminocarbonyl)propoxy]carbostyril] | – | – | – | 90.5
